Measurements taken from patent US9131719B2, “Use of certain neoflavonoids for intensifying and/or producing a sensory impression of sweetness” (SYMRISE AG, priority 2011, dated 2015).

Columns and labels:
Assay type in all cases: in vivo
[1] = tested on: impression of sweetness of a 5 wt % sucrose solution; experiment: Intensification of the impression of sweetness of a sugar solution, assessed by a panel of experts; conditions: for % intensification of the impression of sweetness: calculated from mean values with vs without test substance; for Impression of sweetness (1-10) with: scale 1 [not sweet] to 10 [extremely sweet]; for sweetness intensifying action (in words): residue at position C5 instead of C7, compared with compounds to be used according to the invention
Method: For quantifying the intensification of the impression of sweetness, the sweetness of a 5 wt % sucrose solution (consisting of 5 wt % sucrose in water) and of a sample that consisted of water, 5 wt % sucrose and a specified amount (i.e. that given below in each case) of test substance was determined by a panel of experts. The assessment was based on a scale from 1 [not sweet] to 10 [extremely sweet]. The intensification of the impression of sweetness (in %) was calculated from the respective mean values of the assessments of the sucrose solution and of the respective sample to be investigated containing the test substance. The test substances used were in each case a racemic mixture of the following compounds to be used according to the invention. […]

[2] = tested on: bitterness of a solution containing 100 ppm naringin; experiment: Reduction of bitterness of a solution of bitter substance (naringin), assessed by a panel of experts; conditions: 25 ppm test substance
Description: (§1) To quantify the reduction (i.e. the masking or decrease) of the impression of bitterness in a sample, the bitterness of a solution containing 500 ppm caffeine or 100 ppm naringin was compared by a panel of experts, in each case against a sample that contained 500 ppm caffeine or 100 ppm naringin and additionally the amount stated in each case of a substance to be assessed (with respect to capacity for reducing bitterness) (assessment scale: 1 [not bitter] through 10 [extremely bitter]). Evaluation, i.e. calculation of the reduction (in %) of the impression of bitterness, was based in each case on the mean values of the assessment of the panel of experts.

[3] = tested on: bitterness of a solution containing 500 ppm caffeine; experiment: Reduction of bitterness of a solution of bitter substance (caffeine), assessed by a panel of experts; conditions: 50 ppm test substance
Description: as §1

[4] = 50 ppm test substance in 5 wt % sucrose solution
[5] = 50 ppm test substance in water with 5 wt % sucrose
[6] = scale 1 [not bitter] through 10 [extremely bitter]

## COc1cc(O)c2c(c1)OC(=O)C[C@H]2c1ccc(O)c(OC)c1 [(23) + (24), (4S)-5-Hydroxy-4-(4-hydroxy-3-methoxyphenyl)-7-methoxy-chroman-2-one (23) and (4R)-5-hydroxy-4-(4-hydroxy-3-methoxyphenyl)-7-methoxy-chroman-2-one (24)]
[1]; [4]
  % intensification of the impression of sweetness: 47%
[1]; [5]
  Impression of sweetness (1-10) with: 7.6 ± 1.5

## COc1cc([C@@H]2CC(=O)Oc3cc(O)cc(OC)c32)ccc1O [(A), (4S)-7-Hydroxy-4-(4-hydroxy-3-methoxyphenyl)-5-methoxy-chroman-2-one]
[1]
  sweetness intensifying action (in words): much lower sweetness intensifying action

## COc1cc(OC)c2c(c1)OC(=O)C[C@H]2c1ccc(O)c(OC)c1 [(17) + (18), (4S)-4-(4-Hydroxy-3-methoxyphenyl)-5,7-dimethoxy-chroman-2-one (17) and (4R)-4-(4-hydroxy-3-methoxyphenyl)-5,7-dimethoxy-chroman-2-one (18)]
[2]; calculated from mean values
  % reduction of the impression of bitterness: 9.9%
[2]; [6]
  Impression of bitterness (1-10) with: 4.8 ± 2.5
[1]; [4]
  % intensification of the impression of sweetness: 37% (p < 0.002)
[1]; [5]
  Impression of sweetness (1-10) with: 7.1 ± 1.8

## CCCOc1ccc2c(c1)OC(=O)C[C@H]2c1ccc(O)cc1 [(11) + (12), (4S)-4-(4-Hydroxyphenyl)-7-propoxy-chroman-2-one (11) and (4R)-4-(4-hydroxyphenyl)-7-propoxy-chroman-2-one (12)]
[1]; 25 ppm test substance in 5 wt % sucrose solution
  % intensification of the impression of sweetness: 14% (p < 0.09)
[1]; 25 ppm test substance in water with 5 wt % sucrose
  Impression of sweetness (1-10) with: 6.6 ± 1.5

## (4S)-4-(4-Hydroxyphenyl)-7-methoxy-chroman-2-one (19) and (4R)-4-(4-hydroxyphenyl)-7-methoxy-chroman-2-one (20) [(19) + (20)]
[3]; calculated from mean values
  % reduction of the impression of bitterness: 9.9%
[3]; [6]
  Impression of bitterness (1-10) with: 3.6 ± 1.5
[1]; [4]
  % intensification of the impression of sweetness: 14% (p < 0.09)
[1]; [5]
  Impression of sweetness (1-10) with: 5.4 ± 1.1

## COc1cc([C@@H]2CC(=O)Oc3cc(O)cc(OC)c32)ccc1O [(A) + (B), (4S)-7-Hydroxy-4-(4-hydroxy-3-methoxyphenyl)-5-methoxy-chroman-2-one (A) and (4R)-7-hydroxy-4-(4-hydroxy-3-methoxyphenyl)-5-methoxy-chroman-2-one (B)]
[1]; [4]
  % intensification of the impression of sweetness: 8% (p < 0.5)
[1]; [5]
  Impression of sweetness (1-10) with: 5.8 ± 1.4

## (4S)-7-Methoxy-4-(4-methoxyphenyl)chroman-2-one (1) and (4R)-7-methoxy-4-(4-methoxyphenyl)chroman-2-one (2) [(1) + (2)]
[1]; [4]
  % intensification of the impression of sweetness: 12% (p < 0.08)
[1]; [5]
  Impression of sweetness (1-10) with: 5.4 ± 0.9

## COc1cc([C@H]2CC(=O)Oc3cc(O)cc(OC)c32)ccc1O [(B), (4R)-7-hydroxy-4-(4-hydroxy-3-methoxyphenyl)-5-methoxy-chroman-2-one]
[1]
  sweetness intensifying action (in words): much lower sweetness intensifying action
